Source: patent US20230257364A1, “PYRIDAZINONE-BASED COMPOUNDS AS AXL, C-MET, AND MER INHIBITORS AND METHODS OF USE THEREOF” (CMG Pharmaceutical Co., Ltd., priority 2022, published 2023)
Where two headings read alike, the source gives them in different places.

Experiments:
Format in all cases: biochemical
[1] = molecular target: T1, MER (Homo sapiens, UniProt Q12866); assay: Enzymatic kinase assay (ADP-GLO), MER; settings: 10 μM ATP, poly (Glu4, Tyr1) substrate, 60 min room temperature, luminescence
T1 sequence (Q12866 21-999): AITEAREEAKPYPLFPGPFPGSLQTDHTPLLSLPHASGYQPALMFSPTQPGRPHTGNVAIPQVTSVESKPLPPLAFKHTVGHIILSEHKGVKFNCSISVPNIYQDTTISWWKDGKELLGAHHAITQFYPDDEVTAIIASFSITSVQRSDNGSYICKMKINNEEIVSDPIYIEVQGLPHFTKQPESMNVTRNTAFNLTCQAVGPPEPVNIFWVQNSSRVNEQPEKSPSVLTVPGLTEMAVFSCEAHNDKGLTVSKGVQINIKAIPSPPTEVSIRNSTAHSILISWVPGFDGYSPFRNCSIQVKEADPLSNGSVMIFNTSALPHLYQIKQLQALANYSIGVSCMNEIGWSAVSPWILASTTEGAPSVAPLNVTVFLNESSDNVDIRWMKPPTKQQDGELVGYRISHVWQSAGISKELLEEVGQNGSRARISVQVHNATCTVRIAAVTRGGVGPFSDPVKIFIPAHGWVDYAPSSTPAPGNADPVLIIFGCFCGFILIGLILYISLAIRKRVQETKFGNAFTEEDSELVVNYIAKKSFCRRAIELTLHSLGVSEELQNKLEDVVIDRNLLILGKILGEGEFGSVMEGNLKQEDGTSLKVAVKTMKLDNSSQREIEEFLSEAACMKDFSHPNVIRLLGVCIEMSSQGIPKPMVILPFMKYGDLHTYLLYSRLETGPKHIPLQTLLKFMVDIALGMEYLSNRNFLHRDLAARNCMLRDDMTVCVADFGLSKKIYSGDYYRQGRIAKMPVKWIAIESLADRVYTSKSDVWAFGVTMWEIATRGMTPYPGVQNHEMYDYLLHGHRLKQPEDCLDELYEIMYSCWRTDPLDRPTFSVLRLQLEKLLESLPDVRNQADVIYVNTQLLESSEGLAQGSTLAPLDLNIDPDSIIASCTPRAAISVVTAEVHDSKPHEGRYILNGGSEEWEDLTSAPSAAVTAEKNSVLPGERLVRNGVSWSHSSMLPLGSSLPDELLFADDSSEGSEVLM
Experimental: (§1) This example illustrates an enzymatic assay to determine the inhibitory activity of exemplary compounds of Formula (I) in an aspect of the invention.
(§2) All the kinase reactions were performed in 5 μL using tyrosine kinase buffer with 0.2 μg/μL poly (Glu4, Tyr1) substrate, 10 μM ATP, serial dilution of the inhibitor, and incubated at room temperature for 60 min. After the indicated incubation times, 5 μL ADP-GLO™ reagent (Promega, Madison, Wis.) was added to the reactions and the plate was incubated at room temperature for 40 min. Then, 10 μL of kinase detection reagent was added and after an incubation time of 40 min, luminescence was recorded and IC50 values were determined (Table 1). All 384-well assay plates were read using a GLOMAX™ Discover Microplate Luminometer from Promega (Madison, Wis.). To plot, analyze the data and calculate all kinase reaction biochemical values, both Microsoft Excel and Prism from GraphPad 7 Software (La Jolla, Calif.) were used.

[2] = molecular target: C-MET (Homo sapiens, UniProt P08581); assay: Enzymatic kinase assay (ADP-GLO), C-MET
Experimental: as §1
as §2, with “Then, 10 μL of kinase detection reagent was added and after an incubation time of 40 min, luminescence was recorded and IC50 values were determined (Table 1).” left out

[3] = molecular target: T2, AXL (Homo sapiens, UniProt P30530); assay: Enzymatic kinase assay (ADP-GLO), AXL; settings: 10 μM ATP, poly (Glu4, Tyr1) substrate, 60 min room temperature, luminescence
T2 sequence (P30530 26-894): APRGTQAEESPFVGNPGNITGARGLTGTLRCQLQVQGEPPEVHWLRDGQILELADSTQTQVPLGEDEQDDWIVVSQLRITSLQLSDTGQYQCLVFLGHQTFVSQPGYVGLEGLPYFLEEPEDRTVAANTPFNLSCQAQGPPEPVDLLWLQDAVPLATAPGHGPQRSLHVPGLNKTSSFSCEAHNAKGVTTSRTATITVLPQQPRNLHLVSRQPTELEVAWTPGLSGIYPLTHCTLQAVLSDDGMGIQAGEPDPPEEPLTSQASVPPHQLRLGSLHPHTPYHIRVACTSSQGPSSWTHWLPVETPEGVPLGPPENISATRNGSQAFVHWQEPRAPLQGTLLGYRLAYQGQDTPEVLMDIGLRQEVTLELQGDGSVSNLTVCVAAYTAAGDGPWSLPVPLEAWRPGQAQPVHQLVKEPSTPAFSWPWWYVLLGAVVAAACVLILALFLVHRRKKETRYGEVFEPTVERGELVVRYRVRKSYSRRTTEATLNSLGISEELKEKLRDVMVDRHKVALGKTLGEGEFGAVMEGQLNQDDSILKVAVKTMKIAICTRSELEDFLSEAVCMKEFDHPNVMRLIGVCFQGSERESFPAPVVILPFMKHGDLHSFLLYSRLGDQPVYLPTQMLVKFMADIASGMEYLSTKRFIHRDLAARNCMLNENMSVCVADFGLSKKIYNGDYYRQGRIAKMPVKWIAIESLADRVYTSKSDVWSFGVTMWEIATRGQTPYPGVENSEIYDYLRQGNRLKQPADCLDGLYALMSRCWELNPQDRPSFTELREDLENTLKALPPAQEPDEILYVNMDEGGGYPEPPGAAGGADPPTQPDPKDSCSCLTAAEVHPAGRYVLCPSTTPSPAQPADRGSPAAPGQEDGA
Experimental: as §1, §2

[4] = 10 μM ATP, poly (Glu4, Tyr1) substrate, 60 min room temperature, luminescence, read-out: Enzymatic assay IC50 (nM) C-MET

Chain of C-MET (P08581 25-1390): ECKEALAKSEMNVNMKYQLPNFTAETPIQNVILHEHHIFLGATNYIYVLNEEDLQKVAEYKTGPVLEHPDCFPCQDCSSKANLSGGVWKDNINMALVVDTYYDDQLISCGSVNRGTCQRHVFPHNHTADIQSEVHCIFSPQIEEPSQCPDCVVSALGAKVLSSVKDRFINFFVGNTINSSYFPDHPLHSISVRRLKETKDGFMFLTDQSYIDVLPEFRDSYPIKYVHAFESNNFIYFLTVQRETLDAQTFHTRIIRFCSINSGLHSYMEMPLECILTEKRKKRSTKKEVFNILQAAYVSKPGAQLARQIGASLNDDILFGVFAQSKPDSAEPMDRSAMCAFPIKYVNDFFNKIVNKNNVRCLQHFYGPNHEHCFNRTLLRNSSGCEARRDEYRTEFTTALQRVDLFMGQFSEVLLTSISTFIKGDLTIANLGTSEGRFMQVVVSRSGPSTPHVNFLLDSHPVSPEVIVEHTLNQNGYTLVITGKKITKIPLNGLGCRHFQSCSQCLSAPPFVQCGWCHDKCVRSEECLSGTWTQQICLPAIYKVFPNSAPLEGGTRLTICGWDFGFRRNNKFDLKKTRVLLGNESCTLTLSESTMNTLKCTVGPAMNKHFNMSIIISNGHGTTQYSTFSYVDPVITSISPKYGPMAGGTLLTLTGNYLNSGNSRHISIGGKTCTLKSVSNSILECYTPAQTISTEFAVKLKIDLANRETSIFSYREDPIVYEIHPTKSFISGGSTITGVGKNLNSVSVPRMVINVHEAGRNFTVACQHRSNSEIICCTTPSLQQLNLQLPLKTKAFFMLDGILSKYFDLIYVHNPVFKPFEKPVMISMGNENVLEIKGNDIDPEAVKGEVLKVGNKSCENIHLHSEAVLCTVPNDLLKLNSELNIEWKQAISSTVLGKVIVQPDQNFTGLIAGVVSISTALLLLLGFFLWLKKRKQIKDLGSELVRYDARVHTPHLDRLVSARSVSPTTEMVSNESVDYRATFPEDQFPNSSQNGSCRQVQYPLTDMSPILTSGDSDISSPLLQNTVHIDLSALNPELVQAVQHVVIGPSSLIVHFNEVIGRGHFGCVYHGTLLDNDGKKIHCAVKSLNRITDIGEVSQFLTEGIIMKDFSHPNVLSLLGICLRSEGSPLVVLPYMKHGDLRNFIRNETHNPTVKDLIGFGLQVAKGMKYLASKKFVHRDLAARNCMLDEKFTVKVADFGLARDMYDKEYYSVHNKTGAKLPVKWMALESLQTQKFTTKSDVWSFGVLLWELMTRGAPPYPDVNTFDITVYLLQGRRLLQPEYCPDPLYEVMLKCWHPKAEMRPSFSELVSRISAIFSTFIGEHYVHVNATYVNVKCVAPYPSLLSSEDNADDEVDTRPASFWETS

Compound	IC50 [1] [nM]	IC50 [2, 4] [nM]	IC50 [3] [nM]	IC50 [2] [nM]
COC1CCN(C(=O)C#Cc2c(Oc3ccc(NC(=O)c4ccnn(-c5ccc(F)cc5)c4=O)cc3F)ccnc2N)CC1 [Example 10, N-(4-(2-amino-3-(3-(4-methoxypiperidin-1-yl)-3-oxoprop-1-ynyl)pyridin-4-yloxy)-3-fluorophenyl)-2-(4-fluorophenyl)-3-oxo-2,3-dihydropyridazine-4-carboxamide]	< 1000	< 1000	< 100	–
Nc1nccc(Oc2ccc(NC(=O)c3ccnn(-c4ccc(F)cc4)c3=O)cc2F)c1C#CC(=O)N1CCNCC1 [Example 13, N-(4-(2-amino-3-(3-oxo-3-(piperazin-1-yl)prop-1-ynyl)pyridin-4-yloxy)-3-fluorophenyl)-2-(4-fluorophenyl)-3-oxo-2,3-dihydropyridazine-4-carboxamide]	< 100	< 100	< 100	–
COCCN1CCC(CC#Cc2c(Oc3ccc(NC(=O)c4ccnn(-c5ccc(F)cc5)c4=O)cc3F)ccnc2N)CC1 [Example 31, N-(4-(2-amino-3-(3-(1-(2-methoxyethyl)piperidin-4-yl)prop-1-ynyl)pyridin-4-yloxy)-3-fluorophenyl)-2-(4-fluorophenyl)-3-oxo-2,3-dihydropyridazine-4-carboxamide]	< 100	< 10	< 100	–
Nc1nccc(Oc2ccc(NC(=O)c3ccnn(-c4ccc(F)cc4)c3=O)cc2F)c1C#CCCN1CCOCC1 [Example 8, N-(4-(2-amino-3-(4-morpholinobut-1-ynyl)pyridin-4-yloxy)-3-fluorophenyl)-2-(4-fluorophenyl)-3-oxo-2,3-dihydropyridazine-4-carboxamide]	< 1000	< 1000	< 100	–
CC(C)(C#Cc1c(Oc2ccc(NC(=O)c3ccnn(-c4ccc(F)cc4)c3=O)cc2F)ccnc1N)N1CCNCC1 [Example 22, N-(4-(2-amino-3-(3-methyl-3-(piperazin-1-yl)but-1-ynyl)pyridin-4-yloxy)-3-fluorophenyl)-2-(4-fluorophenyl)-3-oxo-2,3-dihydropyridazine-4-carboxamide]	< 100	< 100	< 10	–
COCCONC(=O)C#Cc1c(Oc2ccc(NC(=O)c3ccnn(-c4ccc(F)cc4)c3=O)cc2F)ccnc1N [Example 11, N-(4-(2-amino-3-(3-(2-methoxyethoxyamino)-3-oxoprop-1-ynyl)pyridin-4-yloxy)-3-fluorophenyl)-2-(4-fluorophenyl)-3-oxo-2,3-dihydropyridazine-4-carboxamide]	< 1000	< 10	< 100	–
Nc1nccc(Oc2ccc(NC(=O)c3ccnn(-c4ccc(F)cc4)c3=O)cc2F)c1C#CCN1CCNCC1 [Example 6, N-(4-(2-amino-3-(3-(piperazin-1-yl)prop-1-ynyl)pyridin-4-yloxy)-3-fluorophenyl)-2-(4-fluorophenyl)-3-oxo-2,3-dihydropyridazine-4-carboxamide]	< 1000	< 1000	< 1000	–

Second part, the compound after the results:

IC50 [1] [nM]	IC50 [2, 4] [nM]	IC50 [3] [nM]	IC50 [2] [nM]	Compound
< 100	< 100	< 100	–	CC(C)N1CCC(CC#Cc2c(Oc3ccc(NC(=O)c4ccnn(-c5ccc(F)cc5)c4=O)cc3F)ccnc2N)CC1 [Example 32, N-(4-(2-amino-3-(3-(1-isopropylpiperidin-4-yl)prop-1-ynyl)pyridin-4-yloxy)-3-fluorophenyl)-2-(4-fluorophenyl)-3-oxo-2,3-dihydropyridazine-4-carboxamide]
< 100	< 100	< 100	–	Nc1nccc(Oc2ccc(NC(=O)c3cccn(-c4ccc(F)cc4)c3=O)cc2F)c1C#CC(=O)N1CCNCC1 [Example 15, N-(4-(2-amino-3-(3-oxo-3-(piperazin-1-yl)prop-1-ynyl)pyridin-4-yloxy)-3-fluorophenyl)-1-(4-fluorophenyl)-2-oxo-1,2-dihydropyridine-3-carboxamide]
< 10	< 10	< 10	–	COCCN1CCN(C(=O)C#Cc2c(Oc3ccc(NC(=O)c4ccnn(-c5ccc(F)cc5)c4=O)cc3F)ccnc2N)CC1 [Example 14, N-(4-(2-amino-3-(3-(4-(2-methoxyethyl)piperazin-1-yl)-3-oxoprop-1-ynyl)pyridin-4-yloxy)-3-fluorophenyl)-2-(4-fluorophenyl)-3-oxo-2,3-dihydropyridazine-4-carboxamide]
< 10	< 10	< 10	–	COCCN1CCC(C#Cc2c(Oc3ccc(NC(=O)c4ccnn(-c5ccc(F)cc5)c4=O)cc3F)ccnc2N)CC1 [Example 27, N-(4-(2-amino-3-((1-(2-methoxyethyl)piperidin-4-yl)ethynyl)pyridin-4-yloxy)-3-fluorophenyl)-2-(4-fluorophenyl)-3-oxo-2,3-dihydropyridazine-4-carboxamide]
< 10	–	< 10	< 10	Nc1nccc(Oc2ccc(NC(=O)c3ccnn(-c4ccc(F)cc4)c3=O)cc2F)c1C#CCC1CCNCC1 [Example 30, N-(4-(2-amino-3-(3-(piperidin-4-yl)prop-1-ynyl)pyridin-4-yloxy)-3-fluorophenyl)-2-(4-fluorophenyl)-3-oxo-2,3-dihydropyridazine-4-carboxamide]
< 10	< 1000	< 100	–	Nc1nccc(Oc2ccc(NC(=O)c3ccnn(-c4ccc(F)cc4)c3=O)cc2F)c1C#CC(=O)N1CCOCC1 [Example 2, N-(4-(2-amino-3-(3-morpholino-3-oxoprop-1-ynyl)pyridin-4-yloxy)-3-fluorophenyl)-2-(4-fluorophenyl)-3-oxo-2,3-dihydropyridazine-4-carboxamide]
